In patent US20230142338A1, “THIOPHENYL DERIVATIVES USEFUL FOR MODULATING NUCLEIC ACID SPLICING” (REMIX THERAPEUTICS INC., priority 2020, published 2023):

Legend:
Type in all cases: cell-based
HTT AJ mRNA = assay: Splicing assay (RT-qPCR): increase in HTT alternative junction (AJ) mRNA; settings: A673 or K562 cells, 24 hours treatment; concentration having 50% response in AJ mRNA increase
Method: (§1) Compounds described herein were used to modulate RNA transcript abundance in cells. The expression of a target mRNA was measured by detecting the formation of an exon-exon junction in the canonical transcript (CJ). A compound mediated exon-inclusion event was detected by observing an increase in formation of a new junction with an alternative exon (AJ). Real-time qPCR assays were used to detect these splicing switches and interrogate the potency of various compounds towards different target genes. A high-throughput real time quantitative PCR (RT-qPCR) assay was developed to measure these two isoforms of the mRNA (CJ and AJ) for an exemplary gene, HTT, together with a control housekeeping gene, GAPDH or GUSB or PPIA, used for normalization. Briefly, the A673 or K562 cell line was treated with various compounds described herein (e.g., compounds of Formula (I)). After treatment, the levels of the HTT mRNA targets were determined from each sample of cell lysate by cDNA synthesis followed by qPCR.
(§2) The A673 cell line was cultured in DMEM with 10% FBS. Cells were diluted with full growth media and plated in a 96-well plate (15,000 cells in 100 ul media per well). The plate was incubated at 37° C. with 5% CO2 for 24 hours to allow cells to adhere. An 11-point 3-fold serial dilution of the compounds was made in DMSO then diluted in media in an intermediate plate. Compounds were transferred from the intermediate plate to the cell plate with the top dose at a final concentration of 10 uM in the well. Final DMSO concentration was kept at or below 0.25%. The cell plate was returned to the incubator at 37° C. with 5% CO2 for an additional 24 hours.
(§3) The K562 cell line was cultured in IMDM with 10% FBS. For K562, cells were diluted with full growth media and plated in either a 96-well plate (50,000 cells in 50 uL media per well) or a 384-well plate (8,000-40,000 cells in 45 uL media per well). An 11-point 3-fold serial dilution of the compounds were made in DMSO then diluted in media in an intermediate plate. Compound was transferred from the intermediate plate to the cell plate with the top dose at a final concentration of 10 uM in the well. Final DMSO concentration was kept at or below 0.25%. Final volume was 100 uL for 96-well plate and 50 uL for 384-well plate. The cell plate was then placed in an incubator at 37° C. with 5% CO2 for 24 hours.
(§4) The cells were then gently washed with 50 uL-100 uL cold PBS before proceeding to addition of lysis buffer. 30 uL-50 uL of room temperature lysis buffer with DNAse I (and optionally RNAsin) was added to each well. Cells were shaken/mixed thoroughly at room temperature for 5-10 minutes for lysis to take place and then 3 uL-5 uL of room temperature stop solution was added and wells were shaken/mixed again. After 2-5 minutes, the cell lysate plate was transferred to ice for RT-qPCR reaction setup. The lysates could also be frozen at −80° C. for later use.
(§5) In some cases, a direct lysis buffer was used. An appropriate volume of 3× lysis buffer (10 mM Tris, 150 mM NaCl, 1.5%-2.5% Igepal and 0.1-1 U/uL RNAsin, pH 7.4) was directly added to either K562 or A673 cells in media and mixed by pipetting 3 times. The plates were then incubated at room temperature with shaking/rocking for 20-50 minutes to allow for lysis to take place. After this time, the cell lysate plate was transferred to ice to set up for the RT-qPCR reactions. The lysates could also be frozen at −80° C. for later use.
(§6) To set up 10 uL RT-qPCR reactions, cell lysates were transferred to 384-well qPCR plates containing the master mix according to the table below. The plates were sealed, gently vortexed, and spun down before the run. The volumes were adjusted accordingly in some instances where the reaction was carried in 20 uL. The table below summarizes the components of the RT-qPCR reactions:
(§7) The RT-qPCR reaction was performed using a QuantStudio (ThermoFisher) under the following fast cycling conditions. […]

HTT CJ mRNA [1] = assay: Splicing assay (RT-qPCR): decrease in HTT canonical junction (CJ) mRNA; settings: A673 or K562 cells, 24 hours treatment; concentration having 50% response in CJ mRNA decrease
Method: as §1, §2, §3, §4, §5, §6, §7

HTT CJ mRNA [2] = assay: Gene panel canonical junction qPCR assay: HTT; settings: Table 3, concentration having 50% response in CJ decrease, read-out: HTT IC50 (decrease in CJ mRNA levels)
Method: as §1, §2, §3, §4, §5, §6, §7

SMN2 CJ mRNA = assay: Gene panel canonical junction qPCR assay: SMN2; settings: Table 3, concentration having 50% response in CJ decrease, read-out: SMN2 IC50 (decrease in CJ mRNA levels)
Method: as §1, §2, §3, §4, §5, §6, §7

Target C CJ mRNA = assay: Gene panel canonical junction qPCR assay: Target C; settings: Table 3, concentration having 50% response in CJ decrease, read-out: Target C IC50 (decrease in CJ mRNA levels)
Method: as §1, §2, §3, §4, §5, §6, §7

SMILES | AC50 (HTT AJ mRNA) [µM] | AC50 (HTT CJ mRNA [1]) [µM] | IC50 (HTT CJ mRNA [2]) [µM] | IC50 (SMN2 CJ mRNA) [µM] | IC50 (Target C CJ mRNA) [µM]
Cc1cn2cc(NC(=O)c3sc(N4CC5(CN(C)C5)C4)cc3F)cc(F)c2n1 [Compound 135, 3-fluoro-N-[8-fluoro-2-methylimidazo[1,2-a]pyridin-6-yl]-5-[6-methyl-2,6-diazaspiro[3.3]heptan-2-yl]thiophene-2-carboxamide] | > 10 | 1 to 10 |  |  | 
Cc1cn2cc(NC(=O)c3sc(N4CCN(C)C(C)C4)cc3F)cc(F)c2n1 (stereo not drawn) [Compound 129, 5-(3,4-dimethylpiperazin-1-yl)-3-fluoro-N-[8-fluoro-2-methylimidazo[1,2-a]pyridin-6-yl]thiophene-2-carboxamide] | > 10 | > 10 | > 0.01 | 1 to 10 | > 0.01
Cc1cn2cc(NC(=O)c3sc(C4C[C@@H](C)N[C@@H](C)C4)cc3F)cc(F)c2n1 (stereo partly drawn) [Compound 147, 5-[(2R,6S)-2,6-dimethylpiperidin-4-yl]-3-fluoro-N-[8-fluoro-2-methylimidazo[1,2-a]pyridin-6-yl]thiophene-2-carboxamide] | 1 to 10 | 0.1 to 1 | 0.1 to 1 | < 0.1 | 1 to 10
Cn1cc2c(F)cc(NC(=O)c3sc(C4CCNCC4)cc3F)cc2n1 [Compound 183, 3-fluoro-N-(4-fluoro-2-methylindazol-6-yl)-5-(piperidin-4-yl)thiophene-2-carboxamide] | > 10 | > 10 | > 0.01 | > 0.01 | > 0.01
Cc1cn2cc(NC(=O)c3sc(N4CCNC(C)C4)cc3F)c(C)cc2n1 (stereo not drawn) [Compound 166, N-[2,7-dimethylimidazo[1,2-a]pyridin-6-yl]-3-fluoro-5-(3-methylpiperazin-1-yl)thiophene-2-carboxamide] | > 10 | > 10 | > 0.01 | 1 to 10 | > 0.01
Cc1cn2nc(NC(=O)c3sc([C@H]4CCN[C@H](C)C4)cc3F)cc(C)c2n1 [Compound 103, N-[2,8-dimethylimidazo[1,2-b]pyridazin-6-yl]-3-fluoro-5-[(2R,4S)-2-methylpiperidin-4-yl] thiophene-2-carboxamide] | 0.1 to 1 | 0.1 to 1 | 0.1 to 1 | < 0.1 | 1 to 10
CCN1CCC(c2cc(F)c(C(=O)Nc3cc(F)c4nc(C)cn4c3)s2)CC1 [Compound 146, 5-(1-ethylpiperidin-4-yl)-3-fluoro-N-[8-fluoro-2-methylimidazo[1,2-a]pyridin-6-yl]thiophene-2-carboxamide] | 1 to 10 | 1 to 10 | 1 to 10 | 0.1 to 1 | < 0.1
Cc1cn2nc(NC(=O)c3sc([C@@H]4CCN[C@H](C)C4)cc3F)cc(C)c2n1 [Compound 101, N-[2,8-dimethylimidazo[1,2-b]pyridazin-6-yl]-3-fluoro-5-[(2R,4R)-2-methylpiperidin-4-yl] thiophene-2-carboxamide] | 0.1 to 1 | 0.1 to 1 | 0.1 to 1 | < 0.1 | 0.1 to 1
Cc1cn2cc(NC(=O)c3sc(N4CCNCC4)cc3F)cc(F)c2n1 [Compound 126, 3-fluoro-N-[8-fluoro-2-methylimidazo[1,2-a]pyridin-6-yl]-5-(piperazin-1-yl)thiophene-2-carboxamide] | 1 to 10 | 1 to 10 | 1 to 10 | 0.1 to 1 | 
Cc1cn2cc(NC(=O)c3ccc(N4CCNC(C)C4)s3)cc(F)c2n1 (stereo not drawn) [Compound 122, N-[8-fluoro-2-methylimidazo[1,2-a]-pyridin-6-yl]-5-(3-methylpip-erazin-1-yl)-thiophene-2-carboxamide] | > 10 | > 10 | > 0.01 | 0.1 to 1 | 
Cc1cn2cc(NC(=O)c3sc([C@H]4CCN[C@@H](C)C4)cc3F)cc(F)c2n1 [Compound 115, 3-fluoro-N-[8-fluoro-2-methylimidazo[1,2-a]pyridin-6-yl]-5-[(2S,4S)-2-methylpiperidin-4-yl]thiophene-2-carboxamide] | 0.1 to 1 | 0.1 to 1 | 0.1 to 1 | 0.1 to 1 | 
Cc1cn2cc(NC(=O)c3sc(N4CCNC(C)C4)cc3F)nc2c(C)n1 (stereo not drawn) [Compound 168, N-[6,8-dimethylimidazo[1,2-a]pyrazin-2-yl]-3-fluoro-5-(3-methylpiperazin-1-yl)thiophene-2-carboxamide] | > 10 | 1 to 10 |  |  | 
Cc1cn2cc(NC(=O)c3sc(C4CC(C)(C)NC(C)(C)C4)cc3F)cc(F)c2n1 [Compound 148, 3-fluoro-N-[8-fluoro-2-methylimidazo[1,2-a]pyridin-6-yl]-5-(2,2,6,6-tetramethylpiperidin-4-yl)thiophene-2-carboxamide] | 0.1 to 1 | 0.1 to 1 |  |  | 
Cc1cn2cc(NC(=O)c3sc(N4CCNC(C)C4)cc3F)cc(F)c2n1 (stereo not drawn) [Compound 128, 3-fluoro-N-[8-fluoro-2-methylimidazo[1,2-a]pyridin-6-yl]-5-(3-methylpiperazin-1-yl)thiophene-2-carboxamide] | > 10 | 1 to 10 | 1 to 10 | 0.1 to 1 | 
Cc1cn2cc(-c3cc(F)c(C(=O)NC4CCN(C)CC4)s3)nc2c(C)n1 [Compound 109, 5-[6,8-dimethylimidazo[1,2-a]pyrazin-2-yl]-3-fluoro-N-(1-methylpiperidin-4-yl)thiophene-2-carboxamide] | > 10 | 1 to 10 |  |  | 
Cc1cn2cc(NC(=O)c3sc(C4CCNCC4)cc3F)cc(F)c2n1 [Compound 144, 3-fluoro-N-[8-fluoro-2-methylimidazo[1,2-a]pyridin-6-yl]-5-(piperidin-4-yl) thiophene-2-carboxamide] | 0.1 to 1 | 0.1 to 1 | 0.1 to 1 | < 0.1 | 
CCC1CN(c2cc(F)c(C(=O)Nc3cc(F)c4nc(C)cn4c3)s2)CCN1 (stereo not drawn) [Compound 130, 5-(3-ethylpiperazin-1-yl)-3-fluoro-N-[8-fluoro-2-methylimidazo[1,2-a]pyridin-6-yl]thiophene-2-carboxamide] | > 10 | 1 to 10 |  |  | 
Cc1cn2cc(NC(=O)c3sc(N4CCC(N(C)C)CC4)cc3F)cc(F)c2n1 [Compound 140, 5-[4-(dimethylamino)piperidin-1-yl]-3-fluoro-N-[8-fluoro-2-methylimidazo[1,2-a]pyridin-6-yl]thiophene-2-carboxamide] | 0.1 to 1 | 1 to 10 |  |  | 
Cc1cn2cc(NC(=O)c3sc(N4CCNC(C)C4)c(Cl)c3Cl)cc(F)c2n1 (stereo not drawn) [Compound 186] | > 10 | > 10 | > 0.01 | 1 to 10 | 
Cc1cn2cc(-c3cc(F)c(C(=O)N[C@H]4CCN[C@@H](C)C4)s3)nc2c(C)n1 [Compound 112] | > 10 | > 10 |  |  | 
Cc1cn2cc(-c3cc(F)c(C(=O)N[C@H]4CCN[C@H](C)C4)s3)nc2c(C)n1 [Compound 113] | > 10 | 0.1 to 1 |  |  | 
